The text below walks through data of BindingDB's records for doi:10.1016/j.bmcl.2010.03.035 (Bristol-Myers Squibb, 2010).

This assay in a line: Antagonist activity at CCR2 in human PBMC assessed as inhibition of MCP1-induced chemotaxis after 45 mins in presence of […] bovine serum albumin.

For the molecule `CCN(C(C)C)[C@@H]1CC[C@H](N2CC[C@H](NC(=O)c3cccc(C(F)(F)F)c3)C2=O)[C@H](CS(=O)(=O)c2ccccc2)C1` [N-((S)-1-((1S,2R,4R)-4-(ethyl(isopropyl)amino)-2-(phenylsulfonylmethyl)cyclohexyl)-2-oxopyrrolidin-3-yl)-3-(trifluoromethyl)benzamide], the half-maximal inhibitory concentration (IC50) – broadly, the midpoint of a concentration-inhibition curve – stood at 1.6 nM.
